Tests used:
Caenorhabditis elegans [1] = assay: Initial HTS Run (mOD, % Run, visual score); design: key to Initial HTS Run Visual Score: Dead: only stiff L1s (no movement); Dead (L4): worms are dead, but at a later larval stage; majority of worms are L1 (based on size); majority of worms are L2 (based on size); majority of worms are L3 (based on size); majority of worms are L4 (based on size); AD: majority of worms are adult; #AD: 5 adult worms or less; B!: sterile (0-25 progeny); B: low broodsize (25-100 progeny); ˜B: moderate broodsize (100-250 progeny); <: reduced broodsize (250-500 progeny); OK: no effect (˜1000+ progeny); settings: in vivo
Protocol: (§1) The nematicidal activity of anthelmintic Compositions 48-68 were determined in accordance with the procedure outlined in Example 2.

Caenorhabditis elegans [2] = assay: C. elegans L1 nematicidal dose response, 5 day visual viability score (3-fold dilutions); assay type: in vivo; design: key: Dead: only stiff L1s (no movement); Dead (L4): worms are dead, but at a later larval stage; majority of worms are L1 (based on size); majority of worms are L2 (based on size); majority of worms are L3 (based on size); majority of worms are L4 (based on size); AD: majority of worms are adult; #AD: 5 adult worms or less; B!: sterile (0-25 progeny); B: low broodsize (25-100 progeny); ˜B: moderate broodsize (100-250 progeny); <: reduced broodsize (250-500 progeny); OK: no effect (˜1000+ progeny); settings: for 5 Day Visual Score V6: 0.3 μM; for 5 Day Visual Score V5: 0.9 μM; for 5 Day Visual Score V4: 2.6 μM; for 5 Day Visual Score V3: 7.8 μM; for 5 Day Visual Score V2: 23.3 μM; for 5 Day Visual Score V1: 70 μM
Protocol: Caenorhabditis elegans adults were grown on Nematode Growth Medium (NGM) until they produced eggs, then the adults were removed.
The eggs were allowed to hatch, and the L1 larvae collected. See The Nematode Caenorhabditis elegans (1988) Cold Spring Harbor Laboratory Press. Using a Matrix Programmable Pipette, the L1s were distributed into 96-well tissue culture plates, 20 L1 in 50 μl NGM per well. Antibiotic/Antimyotic was added to each well, and 1% by weight E. coli strain HB101. The subject anthelmintic compounds were stored at 5 mM in 100% DMSO. 0.7 μl of compounds 1-31 were added to the left-most column of wells to yield a final concentration of 70 μM in 1.4% DMSO, with 1.4% DMSO only as the control. The compounds were then subjected to 5 more 3-fold dilutions from left to right to yield 6 column concentrations of 70 μM, 23.3 μM, 7.8 μM, 2.6 μM, 0.9 μM, and 0.3 μM. Plates were stored in air-tight Rubbermaid plastic boxes at 20° C. The nematodes had cleared all control wells by day 4, and nematode viability was scored by visual examination under a 100× dissecting microscope on day 5. A visual viability scoring system was used as follows:
Column VI has a compound concentration of 70 μM with sequential 3-fold dilutions reported in columns V2, V3, V4, V5, and V6, respectively, such that the V6 concentration was 0.3 μM.
as §1

Caenorhabditis elegans [3] = assay: Follow-up HTS Run (mOD, % Run, visual score); design: key to Follow-up HTS Run Visual Score: Dead: only stiff L1s (no movement); Dead (L4): worms are dead, but at a later larval stage; majority of worms are L1 (based on size); majority of worms are L2 (based on size); majority of worms are L3 (based on size); majority of worms are L4 (based on size); AD: majority of worms are adult; #AD: 5 adult worms or less; B!: sterile (0-25 progeny); B: low broodsize (25-100 progeny); ˜B: moderate broodsize (100-250 progeny); <: reduced broodsize (250-500 progeny); OK: no effect (˜1000+ progeny); settings: in vivo
Protocol: as §1

[4] = test system: root-knot nematode, Meloidogyne incognita; settings: in vivo; cited from earlier work
[5] = Table 3, procedure of Example 2

SMILES	Initial HTS Run % Run (Caenorhabditis elegans [1])	Initial HTS Run Visual Score (Caenorhabditis elegans [1])	Initial HTS Run mOD (Caenorhabditis elegans [1])	5 Day Visual Score V6 (Caenorhabditis elegans [2]; [5])	5 Day Visual Score V5 (Caenorhabditis elegans [2]; [5])	5 Day Visual Score V4 (Caenorhabditis elegans [2]; [5])	5 Day Visual Score V3 (Caenorhabditis elegans [2]; [5])	5 Day Visual Score V2 (Caenorhabditis elegans [2]; [5])	Follow-up HTS Run % Run (Caenorhabditis elegans [3])	Follow-up HTS Run mOD (Caenorhabditis elegans [3])	Follow-up HTS Run Visual Score (Caenorhabditis elegans [3])	5 Day Visual Score V1 (Caenorhabditis elegans [2]; [5])	5 Day Visual Score V3 (Caenorhabditis elegans [2]; scored day 5)	5 Day Visual Score V2 (Caenorhabditis elegans [2]; scored day 5)	5 Day Visual Score V1 (Caenorhabditis elegans [2]; scored day 5)	activity against the root-knot nematode [4]
CC(=O)Nc1ccc(S(=O)(=O)N2CCN(C(=O)c3cc(C(F)(F)F)cc(C(F)(F)F)c3)CC2C(=O)NCc2ccccc2)cc1 (stereo not drawn) [AKC 163]	119%	L2/L3(DEAD)	146 mOD	OK (no effect (˜1000+ progeny))	OK (no effect (˜1000+ progeny))	OK (no effect (˜1000+ progeny))	OK (no effect (˜1000+ progeny))	< (reduced broodsize (250-500 progeny))	136%	219 mOD	–	–	–	–	–	–
CCCCCCCCS(=O)(=O)N1CCN(C(=O)c2cc(C(F)(F)F)cc(C(F)(F)F)c2)CC1C(=O)NCc1ccccc1 (stereo not drawn) [AKC 165]	115%	–	142 mOD	OK (no effect (˜1000+ progeny))	OK (no effect (˜1000+ progeny))	OK (no effect (˜1000+ progeny))	< (reduced broodsize (250-500 progeny))	–	126%	203 mOD	Dead	–	–	–	–	–
COc1ccc(CC(=O)N2CCN(S(=O)(=O)c3ccc(OC)c(OC)c3)C(C(=O)NCc3cc(C(F)(F)F)cc(C(F)(F)F)c3)C2)cc1OC (stereo not drawn) [AKC 168]	90%	5AD/B	111 mOD	OK (no effect (˜1000+ progeny))	OK (no effect (˜1000+ progeny))	OK (no effect (˜1000+ progeny))	OK (no effect (˜1000+ progeny))	OK (no effect (˜1000+ progeny))	135%	217 mOD	3AD/˜B	L3/#AD/B!	–	–	–	–
Cc1cccc2scc(CC(=O)Nc3nc(C(C)(C)C)cs3)c12 [AKC 170]	111%	L3	136 mOD	OK (no effect (˜1000+ progeny))	OK (no effect (˜1000+ progeny))	OK (no effect (˜1000+ progeny))	OK (no effect (˜1000+ progeny))	#AD/	139%	223 mOD	L4/AD/B!	L2	–	–	–	–
CCCCCCCCS(=O)(=O)N1CCN(C(=O)C=Cc2cccc(C(F)(F)F)c2)CC1C(=O)NCc1ccc(C(F)(F)F)cc1 (stereo not drawn) [AKC 171]	101%	–	124 mOD	–	–	–	Dead	L2	111%	179 mOD	Dead	Dead	Dead(L4)/#A	L2	Dead	–
CCCCCCCCS(=O)(=O)N1CCN(C(=O)C=Cc2cccc(C(F)(F)F)c2)CC1C(=O)NCc1ccccc1C(F)(F)F (stereo not drawn) [AKC 173]	98%	–	120 mOD	OK (no effect (˜1000+ progeny))	OK (no effect (˜1000+ progeny))	OK (no effect (˜1000+ progeny))	OK (no effect (˜1000+ progeny))	–	107%	172 mOD	–	–	–	–	–	–
CC(C)(C)c1csc(NC(=O)CC2CCCc3ccccc32)n1 (stereo not drawn) [AKC 175]	85%	L4/AD/B	104 mOD	OK (no effect (˜1000+ progeny))	OK (no effect (˜1000+ progeny))	OK (no effect (˜1000+ progeny))	OK (no effect (˜1000+ progeny))	OK (no effect (˜1000+ progeny))	99%	159 mOD	L4/AD/B!	< (reduced broodsize (250-500 progeny))	–	–	–	–
CC[C@H](C)[C@H]1O[C@]2(CC(O)[C@@H]1C)C[C@@H]1C[C@@H](C/C=C(\C)[C@@H](OC3CC(OC)C(OC4CC(OC)C(O)C(C)O4)C(C)O3)[C@@H](C)/C=C/C=C3\CO[C@@H]4[C@H](O)C(C)=C[C@@H](C(=O)O1)[C@]34O)O2 (stereo partly drawn) [Avermectin B2a]	–	–	–	–	–	–	–	–	–	–	–	–	–	–	–	active

— patent US20020016330A1, “Materials and methods for killing nematodes and nematode eggs” (priority 2000, published 2002)
